Measurements as given in paper PMC12196476, “New Nitrogen-, Oxygen-, and Sulfur-Containing Heterocyclic Compounds as Anti-Colon Cancer Agents: Synthesis, Multitargeted Evaluations, Molecular Docking Simulations and ADMET Predictions” (Pharmaceuticals, 2025).
Where “and” joins values, the source holds several entries; their conditions need not be identical. Equal entries are not always repeated.

Key:
PDK-1 = PDK-1 (Homo sapiens, UniProt Q15118); assay: In vitro PDK-1 inhibition assay (Kinase-Glo luminescent kinase kit); assay type: biochemical
PDK-1, sequence (Q15118 29-436): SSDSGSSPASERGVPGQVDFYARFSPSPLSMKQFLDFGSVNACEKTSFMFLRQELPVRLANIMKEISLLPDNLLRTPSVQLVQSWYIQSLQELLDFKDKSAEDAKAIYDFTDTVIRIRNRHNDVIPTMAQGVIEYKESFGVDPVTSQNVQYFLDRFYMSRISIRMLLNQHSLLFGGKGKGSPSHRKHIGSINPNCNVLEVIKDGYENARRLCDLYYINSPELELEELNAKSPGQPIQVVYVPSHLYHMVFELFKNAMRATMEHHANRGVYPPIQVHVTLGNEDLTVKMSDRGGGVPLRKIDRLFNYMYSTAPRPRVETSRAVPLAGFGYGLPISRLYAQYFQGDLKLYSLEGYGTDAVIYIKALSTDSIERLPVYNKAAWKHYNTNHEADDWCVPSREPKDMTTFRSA

HCT-116 cells [1] = assay: Annexin V-FITC/PI apoptosis assay, HCT-116; assay type: cell-based, human; details: 30 µg/mL, 48 h
Method: Translocation of phosphatidylserine (PS) residues on the cell surface is an early apoptosis indicator, detectable through flow cytometric analysis and using double staining with propidium iodide (PI) dye and fluorescein isothiocyanate (FITC)-conjugated Annexin V (Annexin V-FITC). […]
μg/mL for 48 h. […]
(§1) S3.2.6. Annexin-V-FITC assay. […]
treatment with compound 3d. HCT-116 and LoVo cells were treated with vehicle (DMSO) and 3d […]
in Annexin-V binding buffer (BioVision Research Products, USA). The cells were then stained with Annexin V-FITC and propidium iodide (PI). Using the FITC signal detector (usually FL1) for […]
(§2) of stained cancerous cells were determined. […]

HCT-116 cells [2] = assay: Intracellular ROS level (human ROS ELISA kit), HCT-116; assay type: cell-based; details: 30 µg/mL, 48 h
Method: To determine whether compound 3d induces oxidative stress, intracellular ROS levels were quantified after treatment (30 µg/mL, 48 h) using a human ROS ELISA kit.
A Human ROS ELISA Kit was used to measure the intracellular accumulation of ROS in the 3d-treated LoVo and HCT-116 cells. […]
(§3) medium served used as negative and positive controls, respectively. Percentages of viable cells […]
(§4) wells (final concentration of 100 μg/mL), compared to the negative control, and expressed as mean value (%) ± SD from two replicates. Graphing dose-response curves representing the compound […]
(§5) (HUVECs) at final concentration of 100 μg/mL . HUVECs were grown in Dulbecco’s Modified Eagle’s Medium supplemented with 10% FBS, 2 mM glutamine (Sigma Aldrich), 100 units/mL penicillin and […] streptomycin (Life Technologies; Paisley, UK).
(§6) S3.2.5. Cell cycle assay.
(§7) HCT-116 and LoVo cultures upon treatment with compound 3d. HCT-116 and LoVo carcinoma […]
(§8) μg/mL for 48 h. […] Then, cells […]
were fixed by mixing […] of 90% cold ethanol and stained with propidium iodide (PI) for 1 h at 37 °C. RNase A (10 mg/mL) was added in order to […] the ability of PI to bind only to DNA […]
as §1
treatment with compound 3d. […]
as §2
(§9) carcinoma cells treated with compound 3d was assessed using the TMRE Mitochondrial Membrane

LoVo cells = assay: Cell cycle assay (PI flow cytometry), LoVo; assay type: cell-based, human; details: 30 µg/mL, 48 h, mean of n = 2 (Figure 1E); untreated control 11.51 ± 1.24%
Method: Cell proliferation depends on orderly progression through the phases of the cell cycle (G1−S−G2−M). Cytotoxic agents can impair the integrity of DNA, leading to checkpoint arrest at G1/S or G2/M, which subsequently blocks proliferation. To evaluate the impact of compound 3d on cell cycle distribution, colon carcinoma cells were treated with 30 µg/mL of 3d for 48 h, followed by DNA content analysis using flow cytometry. […] In contrast, in HCT-116 cells, 3d caused an accumulation in the G1 phase, reaching 60.17 ± 1.44% versus 47.37 ± 1.68% in untreated cells (Figure 1E). […]
as §3, §4, §5, §6, §7, §8, §2, §9

inhibition at 100 µg/mL (PDK-1; 100 µg/mL, three replicates, read-out: Mean Inhibition Percent ± SD, PDK-1): 41.8 ± 3.39% | IC50 (PDK-1; three independent experiments, read-out: Mean IC50 µM ± SD, PDK-1): 305 ± 11.1 µM
SMILES: COc1cc(/C=N/c2ncnc3sc4c(c23)CCCC4)cc(OC)c1OC [Compound 3d, (E)-N-(5,6,7,8-Tetrahydrobenzo[4,5]thieno[2,3-d]pyrimidin-4-yl)-1-(3,4,5-trimethoxyphenyl)methanimine]
Necrotic population (Annexin-V−/PI+), HCT-116 (HCT-116 cells [1]; Figure 3D plot): 1.53% | Late apoptotic cells (both Annexin-V and PI positive), HCT-116 (HCT-116 cells [1]; Figure 3D plot, control 0.15%): 3.63% | Early apoptotic cells (Annexin V-FITC positive and PI negative), HCT-116 (HCT-116 cells [1]; Figure 3D plot, control 0.46%): 19.02% | % of cell population, Mean necrosis (HCT-116) (HCT-116 cells [1]; mean of two independent experiments (Figure 3E)): 1.63% | % of cell population, Mean total death (HCT-116) (HCT-116 cells [1]; mean of two independent experiments (Figure 3E), text calls it total apoptosis): 25.11% | ROS, Fold of control, HCT-116 (HCT-116 cells [2]): 2.0 | [ROS] pg/mL ± SD, HCT-116 (HCT-116 cells [2]; control 143.5 ± 6.8, two independent experiments): 290.1 ± 12.7 pg/mL and 290.1 pg/mL | % of Cell population, LoVo: %G2/M (LoVo cells): 24.06 ± 1.32%
